Legend:
[1] = Deposited materials observed after incubation in Ames test; format: physicochemical; details: both conditions of metabolic activation and inactivation
Description: (§1) Mutagenic activity of the compound No. 1 in the invention and 4,4'-diglycidyldiphenylsulfone was evaluated by Ames test for using Salmonela strains (TA-100 and TA-1535) and E. coli (WP2uvrA) under conditions of metabolic activation and metabolic inactivation. The metabolic activation system was consisted of supernatant of 9000 G in centrifugation from rat liver homogenate (S9) mixture which was induced by 5,6-benzoflavone or phenobar bital, and a coenzyme. Both test compounds were prepared at concentration of 50 mg/mL by using dimethylformamide. Then, they were successively diluted to prepare lower concentration solutions by the same solvent. The concentration of each test substance is adjusted to be 128, 320, 800, 2000 and 5000 μg/plate. The test mixture of the bacteria, each test substance and sodium phosphate buffer solution (S9 mixture under the metabolic activation condition) was incubated at 37° C. for 20 minutes. After the incubation the mixture was added by soft agar solution containing minimum nutrients, homogeneously inoculated on an agar plate and incubated at 37° C. for 65 hours. […] It was concluded from the results that the compound No 1. was not mutagenic, but 4,4'-diglycidyldiphenylsulfone was mutagen.

[2] = system: Salmonela strains (TA-100 and TA-1535) and E. coli (WP2uvrA); experiment: Mutagenic activity, Ames test; format: cell-based; details: for increase of recovery mutation colony: 128-5000 μg/plate, metabolic activation (S9) and inactivation, all strains; for mutagenicity (conclusion of Ames test): with and without metabolic activation
Description: as §1

[3] = Stability of background to heat and humidity (heat sensitive recording paper, Macbeth Reflection Densitometer); details: reflection density, filter #106; for Stability of Background to heat and humidity, After exposing: after 50° C. under 80% humidity; for Stability of Background to heat and humidity, Before exposing: before 50° C., 80% humidity
Text: (§2) Example 4 (Preparation of Heat Sensitive Recording Paper)
(§3) A compound in the invention (or a reference compound)
(§4) Each above mixture was sufficiently homogenized by sand grinder to prepare Liquid A, B or C. One weight part of Liquid A, 2 weight parts of Liquid B and 1 weight part of Liquid C. were mixed to prepare a dispersion liquid to tint. The liquid was coated on white paper by applying Wire Rod No. 12, then dried to manufacture the heat sensitive recording paper.
(§5) In the preparation of Liquid C in Example 4, instead of the compound in the invention, 4-glycidyloxy-4'-isoprpoxydiphenylsulfone was taken place, the other components were same as Example 4 and the heat sensitive recording paper was similarly prepared.
(§6) A part of the heat sensitive recording papers which were prepared according to the Example 4 and the Comparative examples were heated from both sides to develop color at 150° C. by dry-heating tester (Kishino Science machinery Co.). Then, after they were placed in Incubator Controlled Humidity and Temperature at 50° C. under 80% humidity and in Fademeter (Type FAL-5, Suga Tester Co.) exposing for 3 hours, the stability of backgrounds, of the color images and anti-photo stability were determined by Macbeth Reflection Densitometer (Type RD-514, Ratten #106).

[4] = Photostability of developed image (Fademeter, Macbeth Reflection Densitometer); details: reflection density, filter #106; for Photostability of developed image, After exposing: after Fademeter exposing for 3 hours; for Photostability of developed image, Before exposing: color developed at 150° C., before Fademeter
Text: as §2, §3, §4, §5, §6

| Structure (SMILES) | Stability of Background to heat and humidity, After exposing [3] | Stability of Background to heat and humidity, Before exposing [3] | Photostability of developed image, After exposing [4] | Photostability of developed image, Before exposing [4] | concentration above which deposited materials were observed [1] | increase of recovery mutation colony [2] | mutagenicity (conclusion of Ames test) [2] | mutagenicity (conclusion of Ames test) ([2]; listed as 4,4'-diglycidyldiphenylsulfone) | mutagenicity (conclusion of Ames test) ([2]; listed as compound No. 1) |
| --- | --- | --- | --- | --- | --- | --- | --- | --- | --- |
| O=S(=O)(c1ccc(OCC2CO2)cc1)c1ccc(OCC2CO2)cc1 (stereo not drawn) [4,4'-diglycidyloxydiphenylsulfone, reference compound] |  |  |  |  | 320-800 μg/plate | increases of recovery mutation colony were in all strains | mutagenic | mutagen |  |
| C=CCOc1ccc(S(=O)(=O)c2ccc(OCC3CO3)cc2)cc1 (stereo not drawn) [(7)] | 0.07 | 0.07 | 1.12 | 1.21 |  |  |  |  |  |
| CC(C)Oc1ccc(S(=O)(=O)c2ccc(OCC3CO3)cc2)cc1 (stereo not drawn) [compound 1, 4-glycidyloxy-4'-isoprpoxydiphenylsulfone, reference compound] | 0.17 | 0.07 | 1.00 | 1.19 |  |  |  |  |  |
| Cc1ccc(COc2ccc(S(=O)(=O)c3ccc(OCC4CO4)cc3)cc2)cc1 (stereo not drawn) [compound (5), 4-(4-methylbenzyloxy)-4'-glycidyloxydiphenylsulfone] | 0.10 | 0.08 | 1.12 | 1.20 |  |  |  |  |  |

Continued, in another order:

| Stability of Background to heat and humidity, After exposing [3] | Stability of Background to heat and humidity, Before exposing [3] | Photostability of developed image, After exposing [4] | Photostability of developed image, Before exposing [4] | Structure (SMILES) | concentration above which deposited materials were observed [1] | increase of recovery mutation colony [2] | mutagenicity (conclusion of Ames test) [2] | mutagenicity (conclusion of Ames test) ([2]; listed as 4,4'-diglycidyldiphenylsulfone) | mutagenicity (conclusion of Ames test) ([2]; listed as compound No. 1) |
| --- | --- | --- | --- | --- | --- | --- | --- | --- | --- |
| 0.11 | 0.07 | 1.15 | 1.23 | O=S(=O)(c1ccc(OCc2ccc(Cl)cc2)cc1)c1ccc(OCC2CO2)cc1 (stereo not drawn) [(2)] |  |  |  |  |  |
| 0.10 | 0.08 | 1.09 | 1.22 | CC1(COc2ccc(S(=O)(=O)c3ccc(OCc4ccccc4Cl)cc3)cc2)CO1 (stereo not drawn) [(3)] |  |  |  |  |  |
| 0.09 | 0.07 | 1.14 | 1.23 | CC1(COc2ccc(S(=O)(=O)c3ccc(OCc4ccc(Cl)cc4)cc3)cc2)CO1 (stereo not drawn) [(4)] |  |  |  |  |  |
| 0.12 | 0.09 | 1.16 | 1.22 | Cc1ccc(COc2ccc(S(=O)(=O)c3ccc(OCC4(C)CO4)cc3)cc2)cc1 (stereo not drawn) [(6)] |  |  |  |  |  |
| 0.07 | 0.06 | 1.13 | 1.21 | CC1(COc2ccc(S(=O)(=O)c3ccc(OCc4ccccc4)cc3)cc2)CO1 (stereo not drawn) [compound (1), 4-benzyloxy-4'-(2-methylglycidyloxy)diphenylsulfone] | > 800 μg/plate | No increase of recovery mutation colony was observed in any strain |  |  | not mutagenic |

From patent US5340788A, “Diphenylsulfone derivatives and heat sensitive recording materials” (Nippon Soda Co., Ltd., priority 1990, dated 1994)
